The source of these data is ChEMBL document CHEMBL4325931, “Modification of the Thioglycosyl-Naphthalimides as Potent and Selective Human O-GlcNAcase Inhibitors” (ACS Med Chem Lett, 2018).

The structures appear in SMILES notation. Bounds are passed on as bounds.

Test [1] deals with T1, Beta-hexosaminidase subunit beta (Homo sapiens) (UniProt P07686).
T1 sequence (whole entry): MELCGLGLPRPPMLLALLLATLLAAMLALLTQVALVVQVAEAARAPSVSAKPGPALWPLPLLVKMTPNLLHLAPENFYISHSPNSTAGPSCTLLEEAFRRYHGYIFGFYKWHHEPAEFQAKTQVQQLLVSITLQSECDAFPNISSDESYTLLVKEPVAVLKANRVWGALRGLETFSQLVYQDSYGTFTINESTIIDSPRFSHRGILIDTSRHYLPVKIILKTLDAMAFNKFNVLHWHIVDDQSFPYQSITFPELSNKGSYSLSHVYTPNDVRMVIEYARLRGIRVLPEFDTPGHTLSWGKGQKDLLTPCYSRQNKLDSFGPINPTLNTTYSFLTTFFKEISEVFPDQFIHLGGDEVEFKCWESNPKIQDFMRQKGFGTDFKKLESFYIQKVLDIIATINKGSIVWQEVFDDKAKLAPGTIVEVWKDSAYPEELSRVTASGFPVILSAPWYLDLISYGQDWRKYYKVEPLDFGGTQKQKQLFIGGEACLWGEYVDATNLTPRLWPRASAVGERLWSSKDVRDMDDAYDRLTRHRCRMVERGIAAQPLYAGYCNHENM
Put plainly: Inhibition of recombinant human His6-tagged HexB expressed in Pichia pastoris at 20 uM using 4-Mu-GlcNAc as substrate preincubated for 10 mins followed by substrate addition and measured after 30 mins by fluorescence assay relative to control.

Test [2] has as its target T2, Protein O-GlcNAcase (Homo sapiens) (UniProt O60502).
T2 sequence (whole entry): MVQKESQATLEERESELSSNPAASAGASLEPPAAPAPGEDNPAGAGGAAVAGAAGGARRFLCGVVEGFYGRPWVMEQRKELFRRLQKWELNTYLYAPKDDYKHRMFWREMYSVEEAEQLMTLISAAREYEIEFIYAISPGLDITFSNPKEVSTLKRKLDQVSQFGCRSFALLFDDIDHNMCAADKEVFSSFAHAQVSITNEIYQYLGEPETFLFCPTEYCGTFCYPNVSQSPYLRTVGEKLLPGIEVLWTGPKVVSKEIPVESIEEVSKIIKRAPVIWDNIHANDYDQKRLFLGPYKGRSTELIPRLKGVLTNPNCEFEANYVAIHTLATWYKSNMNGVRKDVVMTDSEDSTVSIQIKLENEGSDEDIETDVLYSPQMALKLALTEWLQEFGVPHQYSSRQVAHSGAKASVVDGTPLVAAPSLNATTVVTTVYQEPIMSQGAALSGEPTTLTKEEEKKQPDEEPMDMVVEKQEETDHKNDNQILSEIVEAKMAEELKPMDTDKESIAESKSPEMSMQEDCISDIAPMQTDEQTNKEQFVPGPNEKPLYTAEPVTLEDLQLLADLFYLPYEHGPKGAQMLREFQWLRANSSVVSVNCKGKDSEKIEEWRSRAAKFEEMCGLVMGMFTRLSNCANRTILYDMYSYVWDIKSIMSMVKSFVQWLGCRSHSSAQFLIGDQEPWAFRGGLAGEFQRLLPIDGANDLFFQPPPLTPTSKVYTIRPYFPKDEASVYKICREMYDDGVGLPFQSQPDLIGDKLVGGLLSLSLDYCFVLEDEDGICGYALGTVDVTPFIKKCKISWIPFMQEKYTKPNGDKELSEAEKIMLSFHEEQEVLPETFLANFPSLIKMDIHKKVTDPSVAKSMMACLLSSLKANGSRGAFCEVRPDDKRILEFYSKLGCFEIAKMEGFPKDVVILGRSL
Put plainly: Inhibition of recombinant human OGA expressed in Escherichia coli BL21 (DE3) at 20 uM using 4-Mu-GlcNAc as substrate preincubated for 10 mins followed by substrate addition and measured after 30 mins by fluorescence assay relative to control.

Test [3] deals with T3, Protein O-GlcNAcase (Homo sapiens, UniProt O60502).
T3 sequence (O60502 whole entry): T2 sequence (whole entry)
Kind of test: Inhibition of recombinant human OGA expressed in Escherichia coli BL21 (DE3) using 4-Mu-GlcNAc as substrate preincubated for 10 mins followed by substrate addition and measured after 30 mins by fluorescence assay.

Test [4] concerns the target T4, Beta-hexosaminidase subunit beta (Homo sapiens, UniProt P07686).
T4 sequence (P07686 whole entry): T1 sequence (whole entry)
Put plainly: Inhibition of recombinant human His6-tagged HexB expressed in Pichia pastoris using 4-Mu-GlcNAc as substrate preincubated for 10 mins followed by substrate addition and measured after 30 mins by fluorescence assay.

Test [5] is filed under the species Homo sapiens. Kind of test: Selectivity ratio of Ki for recombinant human His6-tagged HexB expressed in Pichia pastoris to Ki for recombinant human OGA expressed in Escherichia coli BL21 (DE3).
Test [6] deals with T2, Protein O-GlcNAcase (Homo sapiens). Put plainly: Inhibition of recombinant human OGA expressed in Escherichia coli BL21 (DE3) at 20 uM using 4-Mu-GlcNAc as substrate measured after 30 mins by fluorescence assay relative to control.
Test [7] has as its target T1, Beta-hexosaminidase subunit beta (Homo sapiens). Put plainly: Inhibition of recombinant human His6-tagged HexB expressed in Pichia pastoris at 20 uM using 4-Mu-GlcNAc as substrate measured after 30 mins by fluorescence assay relative to control.

A word on the inhibition: it is the relative decrease from the control value, in per cent. Broadly, the IC50 is the concentration that gives 50% inhibition. For `CC(=O)N[C@@H]1[C@@H](O)[C@H](O)[C@@H](CO)O[C@H]1SCCNCCN1C(=O)c2cccc3c(N(C)C)ccc(c23)C1=O`, the inhibition in test [1] came out at 0%; in test [2], 32.6%. The IC50 in test [3] is 25 µM; in test [4], above 100 µM.
In the case of `CC(=O)N[C@@H]1[C@@H](O)[C@H](O)[C@@H](CO)O[C@H]1SCCNCCCN1C(=O)c2cccc3cccc(c23)C1=O`, the Ratio Ki in test [5] turned out to be 8. Also, the inhibition in test [6] was 82.4%; in test [7] it was 38.7%.
